Results as given in US20250144067A1, “PERSONALIZED STARVATION THERAPY FOR CANCER” (Faeth Therapeutics, Inc., priority 2021, published 2025).
Counter-ions that a name gives are not always drawn.

Assays:
[1] = system: NCI-H292 lung cancer cells; test: FDA drug screening, complete media vs cholesterol-free media without statin (TABLE 1); format: cell-based, human
[2] = system: NCI-H292 lung cancer cells; test: FDA drug screening, complete media vs cholesterol-free media with simvastatin (TABLE 2); format: cell-based, human; settings: for Cholesterol-free media + simvastatin (0.04 μM) / Complete Media: NCI-H292 cells
[3] = Complete minus Cholesterol-free, greater than 0 enhanced anti-cancer activity, about 0 neutral, below 0 antagonists
[4] = NCI-H292 cells in cholesterol-free media without statin
[5] = NCI-H292 cells in complete media
[6] = cholesterol-free media with simvastatin 0.04 μM, FDA drug library screen (TABLE 2)
[7] = complete media, FDA drug library screen (TABLE 2)
[8] = complete media minus cholesterol-free media + simvastatin (0.04 μM), >0 enhanced anti-cancer activity, about 0 neutral, <0 antagonist
[9] = Complete minus Cholesterol-free, greater than 0 enhanced anti-cancer activity, about 0 neutral, below 0 antagonist
[10] = NCI-H292 cells, FDA drug library screen, cholesterol-free media without statin
[11] = NCI-H292 cells, FDA drug library screen, complete media
[12] = Complete minus Cholesterol-free, >0 enhanced anti-cancer activity, about 0 neutral, <0 antagonist
[13] = NCI-H292 cells, cholesterol-free media without statin, FDA drug library screen
[14] = NCI-H292 cells, complete media, FDA drug library screen
[15] = drug in cholesterol-free media with simvastatin 0.04 μM
[16] = complete media vs cholesterol-free media + simvastatin (0.04 μM), >0 enhanced anti-cancer activity, about 0 neutral, <0 antagonist
[17] = cholesterol-free media with simvastatin 0.04 μM, cell growth value in FDA drug screen
[18] = complete media, cell growth value in FDA drug screen
[19] = complete media minus cholesterol-free media + simvastatin, >0 enhanced anti-cancer activity, about 0 neutral, <0 antagonist
[20] = Complete minus Cholesterol-free, […]
[21] = NCI-H292 cells, cholesterol-free media without statin
[22] = complete media minus cholesterol-free media + simvastatin, […]
[23] = complete vs cholesterol-free media, >0 enhanced anti-cancer activity, about 0 neutral, <0 antagonist
[24] = FDA drug library screen, cholesterol-free media with simvastatin 0.04 μM
[25] = FDA drug library screen, complete media
[26] = FDA library drug in cholesterol-free media with simvastatin 0.04 μM
[27] = FDA library drug in complete media
[28] = complete vs cholesterol-free media, greater than 0 enhanced anti-cancer activity, about 0 neutral, below 0 antagonists

O=C(c1cc(Cc2n[nH]c(=O)c3ccccc23)ccc1F)N1CCN(C(=O)C2CC2)CC1 [Olaparib]
Difference [1, 3]: −0.72
Cholesterol-free [1, 4]: 1.436
Complete [1, 5]: 0.7169
Cholesterol-free media + simvastatin (0.04 μM) [2, 6]: 0.8331
Complete Media [2, 7]: 0.8347
Difference [2, 8]: 0.00

CC(=O)N[C@@H](CC(C)C)C(=O)O [Acetylleucine]
Difference [1, 9]: −0.09
Cholesterol-free [1, 10]: 0.9104
Complete [1, 11]: 0.8206
Cholesterol-free media + simvastatin (0.04 μM) [2, 6]: 0.8948
Complete Media [2, 7]: 0.8714
Difference [2, 8]: −0.02

Gadobutrol
Difference [1, 12]: 0.01
Cholesterol-free [1, 13]: 0.939
Complete [1, 14]: 0.9511
Cholesterol-free media + simvastatin (0.04 μM) [2, 15]: 1.273
Complete Media ([2]; drug in complete media): 1.022
Difference [2, 16]: −0.25

Cc1ncc([N+](=O)[O-])n1CC(O)CCl (centres unmarked) [Ornidazole (Levo-)]
Difference [1, 3]: −0.58
Cholesterol-free [1, 4]: 1.634
Complete [1, 5]: 1.058
Cholesterol-free media + simvastatin (0.04 μM) [2, 17]: 0.9725
Complete Media [2, 18]: 1.072
Difference [2, 19]: 0.10

Heparin (Lithium salt)
Difference [1, 20]: −0.22
Cholesterol-free [1, 21]: 1.174
Complete ([1]; NCI-H292 cells, complete media): 0.9566
Complete Media ([2]; complete media, […]): 1.136
Difference [2, 22]: 0.08

Cc1oc(=O)oc1CN1CCN(c2cc3c(cc2F)c(=O)c(C(=O)O)c2n3C(C)S2)CC1 (centres unmarked) [Prulifloxacin]
Cholesterol-free [1, 13]: 1.111
Complete [1, 14]: 1.213
Difference [1, 23]: 0.10
Cholesterol-free media + simvastatin (0.04 μM) [2, 24]: 0.966
Difference [2, 19]: 0.21

CCc1nc(C(N)=O)c(Nc2ccc(N3CCC(N4CCN(C)CC4)CC3)c(OC)c2)nc1NC1CCOCC1 [Gilteritinib]
Cholesterol-free [1, 13]: 0.2961
Complete [1, 14]: 0.7497
Difference [1, 23]: 0.45
Cholesterol-free media + simvastatin (0.04 μM) [2, 6]: 0.4196
Complete Media [2, 7]: 0.3685
Difference [2, 8]: −0.05

COC(=O)N(C)c1c(N)nc(-c2nn(Cc3ccccc3F)c3ncccc23)nc1N [Riociguat]
Difference [1, 12]: −0.22
Cholesterol-free [1, 21]: 0.9238
Complete ([1]; NCI-H292 cells, complete media): 0.7003
Cholesterol-free media + simvastatin (0.04 μM) [2, 17]: 1.101
Complete Media [2, 18]: 1.185
Difference [2, 19]: 0.08

Nc1ccc(S(=O)(=O)Nc2ncccn2)cc1 [Sulfadiazine (sodium)]
Difference [1, 9]: −0.12
Cholesterol-free [1, 10]: 1.217
Complete [1, 11]: 1.095
Cholesterol-free media + simvastatin (0.04 μM) [2, 15]: 1.234
Complete Media ([2]; drug in complete media): 0.9756
Difference [2, 16]: −0.26

CCCCc1nc(C)c(CC(=S)N(C)C)c(=O)n1Cc1ccc(-c2ccccc2-c2nnn[nH]2)cc1 [Fimasartan]
Difference [1, 9]: −0.08
Cholesterol-free [1, 10]: 1.327
Complete [1, 11]: 1.249
Cholesterol-free media + simvastatin (0.04 μM) [2, 6]: 1.27
Complete Media [2, 7]: 1.222
Difference [2, 8]: −0.05

CC(=O)Nc1cccc(-n2c(=O)n(C3CC3)c(=O)c3c(Nc4ccc(I)cc4F)n(C)c(=O)c(C)c32)c1 [Trametinib (DMSO solvate)]
Difference [1, 12]: 0.00
Cholesterol-free [1, 13]: 0.2835
Complete [1, 14]: 0.2824
Cholesterol-free media + simvastatin (0.04 μM) [2, 24]: 0.4848
Complete Media [2, 25]: 0.3787
Difference [2, 16]: −0.11

Oc1ccc(C=Cc2cc(O)cc(O)c2)cc1 [Resveratrol]
Cholesterol-free [1, 13]: 1.037
Difference [1, 23]: 0.13
Cholesterol-free media + simvastatin (0.04 μM) [2, 24]: 0.7896
Complete Media [2, 25]: 0.6933
Difference [2, 16]: −0.10

Cc1onc(-c2c(F)cccc2Cl)c1C(=O)N[C@@H]1C(=O)N2[C@@H]1SC(C)(C)[C@@H]2C(=O)O [Flucloxacillin sodium]
Difference [1, 12]: −0.29
Cholesterol-free [1, 21]: 1.264
Complete ([1]; NCI-H292 cells, complete media): 0.9693
Cholesterol-free media + simvastatin (0.04 μM) [2, 26]: 1.127
Complete Media [2, 27]: 0.8297
Difference [2, 16]: −0.30

COC(=O)C[C@](O)(CCCC(C)(C)O)C(=O)O[C@@H]1C(OC)=C[C@]23CCCN2CCc2cc4c(cc2[C@H]13)OCO4 [Homoharringtonine]
Difference [1, 12]: −0.02
Cholesterol-free [1, 13]: −0.02013
Complete [1, 14]: −0.04264
Cholesterol-free media + simvastatin (0.04 μM) [2, 6]: 0.0331
Complete Media [2, 7]: 0.0063
Difference [2, 8]: −0.03

CC[C@H](C)[C@H](N)C(=O)O [L-Isoleucine]
Difference [1, 12]: 0.06
Cholesterol-free [1, 13]: 1.023
Complete [1, 14]: 1.082
Cholesterol-free media + simvastatin (0.04 μM) [2, 24]: 2.302
Difference [2, 8]: −1.28

CC1(C)CC[C@]2(C(=O)O)CC[C@]3(C)C(=CC[C@@H]4[C@@]5(C)CC[C@H](O)C(C)(C)[C@@H]5CC[C@]43C)[C@@H]2C1 [Oleanolic Acid]
Difference [1, 12]: −0.19
Cholesterol-free [1, 21]: 1.001
Complete ([1]; NCI-H292 cells, complete media): 0.8111
Cholesterol-free media + simvastatin (0.04 μM) [2, 24]: 1.063
Complete Media [2, 25]: 1.721
Difference [2, 19]: 0.66

Cl.Cl.[O-][S+]1c2ccccc2N=C(N2CCN(CCOCCO)CC2)c2ccccc21 (centres unmarked) [Quetiapine sulfoxide (dihydrochloride)]
Cholesterol-free [1, 21]: 1.151
Complete ([1]; NCI-H292 cells, complete media): 0.7759
Difference [1, 28]: −0.38
Cholesterol-free media + simvastatin (0.04 μM) [2, 24]: 1.184
Complete Media [2, 25]: 1.082
Difference [2, 16]: −0.10

CCCC(CCC)C(=O)O [Valproic acid]
Difference [1, 12]: −0.29
Cholesterol-free [1, 21]: 0.957
Complete ([1]; NCI-H292 cells, complete media): 0.6641
Cholesterol-free media + simvastatin (0.04 μM) [2, 15]: 1.017
Complete Media ([2]; drug in complete media): 0.7948
Difference [2, 16]: −0.22

CC(C)(CO)[C@@H](O)C(=O)NCCC(=O)[O-].CC(C)(CO)[C@@H](O)C(=O)NCCC(=O)[O-].[Ca+2] [D-Pantothenic acid (hemicalcium salt)]
Difference [1, 12]: −0.04
Cholesterol-free [1, 13]: 0.8788
Complete [1, 14]: 0.8434
Cholesterol-free media + simvastatin (0.04 μM) [2, 26]: 1.159
Complete Media [2, 27]: 0.786
Difference [2, 16]: −0.37

N#Cc1ccc2[nH]cc(CCCCN3CCN(c4ccc5oc(C(N)=O)cc5c4)CC3)c2c1 [Vilazodone (Hydrochloride)]
Cholesterol-free [1, 21]: 1.019
Complete ([1]; NCI-H292 cells, complete media): 0.6984
Difference [1, 28]: −0.32
Cholesterol-free media + simvastatin (0.04 μM) [2, 24]: 0.5785
Complete Media [2, 25]: 0.8037
Difference [2, 19]: 0.23

C=CC(=O)Nc1cccc(Oc2nc(Nc3ccc(N4CCN(C)CC4)cc3)nc3ccsc23)c1 [Olmutinib]
Cholesterol-free [1, 13]: 0.5571
Complete [1, 14]: 0.798
Difference [1, 23]: 0.24
Cholesterol-free media + simvastatin (0.04 μM) [2, 24]: 0.5571
Complete Media [2, 25]: 0.4482
Difference [2, 16]: −0.11

CCN(C)C(=O)Oc1cccc([C@H](C)N(C)C)c1 [Rivastigmine]
Difference [1, 20]: −0.61
Cholesterol-free [1, 4]: 1.742
Complete [1, 5]: 1.133
Cholesterol-free media + simvastatin (0.04 μM) ([2]; cholesterol-free media with simvastatin 0.04 μM, […]): 1.229
Complete Media ([2]; complete media, […]): 1.345
Difference [2, 22]: 0.12

O=S(=O)(O)c1ccc2[nH]c(-c3ccccc3)nc2c1 [Ensulizole]
Difference [1, 20]: 0.07
Cholesterol-free [1, 13]: 0.8614
Complete [1, 14]: 0.9314
Cholesterol-free media + simvastatin (0.04 μM) [2, 6]: 0.9021
Complete Media [2, 7]: 0.8833
Difference ([2]; complete media minus cholesterol-free media + simvastatin (0.04 μM), […]): −0.02
